Laboratory results reported in patent publication EP4722207A1, “OXOISOINDOLINYL-SUBSTITUTED TETRAHYDROPYRIMIDINEDIONE DERIVATIVE AND USE THEREOF” (Gluetacs Therapeutics (Shanghai) Co., Ltd., priority 2023, dated 2024).

What was measured:
GSPT1 = biological target: T1, GSPT1 (Homo sapiens, UniProt P15170+Q96SW2); assay: Western-blot assay, substrate protein degradation in hPBMCs: GSPT1; assay type: cell-based; settings: 24 hours of compound treatment, 50 nM and 500 nM
T1 construct: effects of the compounds of the present disclosure on the expression of target proteins in cells; endogenous in cells; host or cells: human PBMCs (hPBMCs)

IKZF2 = biological target: T2, IKZF2 (Homo sapiens, UniProt Q96SW2+Q9UKS7); assay: Western-blot assay, substrate protein degradation in hPBMCs: IKZF2; assay type: cell-based; settings: 24 hours of compound treatment, 50 nM and 500 nM
T2 construct: effects of the compounds of the present disclosure on the expression of target proteins in cells; endogenous in cells; host or cells: human PBMCs (hPBMCs)

IKZF1 = biological target: T3, IKZF1 (Homo sapiens, UniProt Q13422+Q96SW2); assay: Western-blot assay, substrate protein degradation in hPBMCs: IKZF1; assay type: cell-based; settings: 24 hours of compound treatment, 50 nM and 500 nM
T3 construct: effects of the compounds of the present disclosure on the expression of target proteins in cells; endogenous in cells; host or cells: human PBMCs (hPBMCs)

IKZF3 = biological target: T4, IKZF3 (Homo sapiens, UniProt Q96SW2+Q9UKT9); assay: Western-blot assay, substrate protein degradation in hPBMCs: IKZF3; assay type: cell-based; settings: 24 hours of compound treatment, 50 nM and 500 nM
T4 construct: effects of the compounds of the present disclosure on the expression of target proteins in cells; endogenous in cells; host or cells: human PBMCs (hPBMCs)

H292 = assay: Cell viability assay (CellTiter-Meiluncell Luminescent), tumor cell proliferation, H292; settings: Homo sapiens, NCI-H292, 96 h; for inhibition at 0.01 µM: read-out: Inhibition Rate at 10 nM (%); for inhibition at 0.5 µM: read-out: Inhibition Rate at 500 nM (%)
CK1α = biological target: T5, CK1α (Homo sapiens, UniProt P48729+Q96SW2); assay: Western-blot assay, substrate protein degradation in hPBMCs: CK1α; assay type: cell-based; settings: 24 hours of compound treatment, 50 nM and 500 nM
T5 construct: effects of the compounds of the present disclosure on the expression of target proteins in cells; endogenous in cells; host or cells: human PBMCs (hPBMCs)

WEE1 = biological target: T6, WEE1 (Homo sapiens, UniProt P30291+Q96SW2); assay: Western-blot assay, substrate protein degradation in hPBMCs: WEE1; assay type: cell-based; settings: 24 hours of compound treatment, 50 nM and 500 nM
T6 construct: effects of the compounds of the present disclosure on the expression of target proteins in cells; endogenous in cells; host or cells: human PBMCs (hPBMCs)
T6 sequence (P30291 whole entry): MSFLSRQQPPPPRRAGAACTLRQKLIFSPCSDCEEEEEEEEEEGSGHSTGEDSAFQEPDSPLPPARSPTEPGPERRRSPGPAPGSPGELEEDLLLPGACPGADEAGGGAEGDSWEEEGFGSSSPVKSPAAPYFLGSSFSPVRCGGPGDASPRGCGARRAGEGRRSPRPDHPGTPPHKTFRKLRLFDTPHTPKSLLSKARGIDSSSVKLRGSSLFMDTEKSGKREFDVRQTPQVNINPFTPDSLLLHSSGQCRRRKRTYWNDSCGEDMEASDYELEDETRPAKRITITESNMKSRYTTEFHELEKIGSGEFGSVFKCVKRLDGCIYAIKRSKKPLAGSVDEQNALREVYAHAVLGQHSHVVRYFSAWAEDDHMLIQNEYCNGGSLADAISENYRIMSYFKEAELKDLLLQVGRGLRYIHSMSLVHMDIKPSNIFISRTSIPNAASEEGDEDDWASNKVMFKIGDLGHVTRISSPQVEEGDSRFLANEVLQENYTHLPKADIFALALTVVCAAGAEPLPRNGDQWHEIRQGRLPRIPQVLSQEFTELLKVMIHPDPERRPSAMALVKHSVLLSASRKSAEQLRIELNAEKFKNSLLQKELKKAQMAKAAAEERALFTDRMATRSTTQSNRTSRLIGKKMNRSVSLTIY
T6 sequence (Q96SW2 whole entry): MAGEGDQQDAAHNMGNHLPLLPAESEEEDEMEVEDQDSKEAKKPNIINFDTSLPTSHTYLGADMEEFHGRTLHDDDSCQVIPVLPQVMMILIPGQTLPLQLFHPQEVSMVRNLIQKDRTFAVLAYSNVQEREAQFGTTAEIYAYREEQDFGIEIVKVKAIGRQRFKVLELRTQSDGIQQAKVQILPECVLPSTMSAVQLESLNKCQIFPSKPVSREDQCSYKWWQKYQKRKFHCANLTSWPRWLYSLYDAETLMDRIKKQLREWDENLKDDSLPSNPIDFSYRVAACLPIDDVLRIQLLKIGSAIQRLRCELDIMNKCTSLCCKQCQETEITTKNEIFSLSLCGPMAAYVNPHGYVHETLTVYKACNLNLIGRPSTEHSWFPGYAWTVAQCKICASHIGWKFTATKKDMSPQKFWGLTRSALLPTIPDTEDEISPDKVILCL
T6 sequence (Q16531 whole entry partner): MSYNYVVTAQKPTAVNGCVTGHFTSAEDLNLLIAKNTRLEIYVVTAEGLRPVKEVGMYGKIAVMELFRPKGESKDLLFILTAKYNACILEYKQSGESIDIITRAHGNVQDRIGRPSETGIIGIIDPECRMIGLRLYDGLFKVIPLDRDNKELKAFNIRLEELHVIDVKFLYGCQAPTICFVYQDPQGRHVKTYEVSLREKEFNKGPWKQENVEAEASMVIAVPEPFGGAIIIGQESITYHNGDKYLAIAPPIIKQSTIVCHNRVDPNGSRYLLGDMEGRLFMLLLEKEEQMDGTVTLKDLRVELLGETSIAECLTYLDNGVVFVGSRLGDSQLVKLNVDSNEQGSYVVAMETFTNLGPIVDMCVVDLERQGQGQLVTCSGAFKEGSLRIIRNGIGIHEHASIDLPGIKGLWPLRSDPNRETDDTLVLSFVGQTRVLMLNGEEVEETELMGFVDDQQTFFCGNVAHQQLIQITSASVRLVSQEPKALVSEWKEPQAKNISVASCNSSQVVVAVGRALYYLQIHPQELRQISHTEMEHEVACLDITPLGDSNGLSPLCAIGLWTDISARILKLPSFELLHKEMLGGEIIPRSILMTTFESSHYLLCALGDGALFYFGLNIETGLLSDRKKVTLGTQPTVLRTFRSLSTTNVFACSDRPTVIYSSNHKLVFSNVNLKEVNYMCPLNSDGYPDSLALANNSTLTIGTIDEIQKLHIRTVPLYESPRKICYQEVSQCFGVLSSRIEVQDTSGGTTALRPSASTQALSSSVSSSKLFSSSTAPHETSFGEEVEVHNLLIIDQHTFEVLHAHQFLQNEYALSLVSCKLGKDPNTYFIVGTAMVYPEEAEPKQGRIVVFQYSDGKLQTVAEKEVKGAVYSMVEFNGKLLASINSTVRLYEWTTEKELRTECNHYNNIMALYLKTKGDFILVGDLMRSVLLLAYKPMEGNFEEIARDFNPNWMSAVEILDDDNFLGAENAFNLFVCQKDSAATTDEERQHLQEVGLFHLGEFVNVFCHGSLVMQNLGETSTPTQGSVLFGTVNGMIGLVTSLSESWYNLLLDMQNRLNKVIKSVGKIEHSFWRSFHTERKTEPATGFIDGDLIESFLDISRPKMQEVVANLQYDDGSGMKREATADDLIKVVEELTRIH

T5 sequence (P48729 whole entry): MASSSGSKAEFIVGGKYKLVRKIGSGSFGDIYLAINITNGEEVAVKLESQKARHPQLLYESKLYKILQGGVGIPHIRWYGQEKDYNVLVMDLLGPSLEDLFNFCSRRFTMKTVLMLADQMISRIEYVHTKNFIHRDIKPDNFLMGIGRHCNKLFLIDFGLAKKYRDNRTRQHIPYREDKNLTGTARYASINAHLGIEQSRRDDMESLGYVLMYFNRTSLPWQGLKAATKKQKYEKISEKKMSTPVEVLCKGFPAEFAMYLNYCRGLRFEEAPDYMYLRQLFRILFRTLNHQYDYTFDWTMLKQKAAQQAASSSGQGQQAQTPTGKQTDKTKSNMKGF
T5 sequence (Q96SW2 whole entry): as the sequence (Q96SW2 whole entry) above
T5 sequence (Q16531 whole entry partner): as the sequence (Q16531 whole entry partner) above
T2 sequence (Q9UKS7 whole entry): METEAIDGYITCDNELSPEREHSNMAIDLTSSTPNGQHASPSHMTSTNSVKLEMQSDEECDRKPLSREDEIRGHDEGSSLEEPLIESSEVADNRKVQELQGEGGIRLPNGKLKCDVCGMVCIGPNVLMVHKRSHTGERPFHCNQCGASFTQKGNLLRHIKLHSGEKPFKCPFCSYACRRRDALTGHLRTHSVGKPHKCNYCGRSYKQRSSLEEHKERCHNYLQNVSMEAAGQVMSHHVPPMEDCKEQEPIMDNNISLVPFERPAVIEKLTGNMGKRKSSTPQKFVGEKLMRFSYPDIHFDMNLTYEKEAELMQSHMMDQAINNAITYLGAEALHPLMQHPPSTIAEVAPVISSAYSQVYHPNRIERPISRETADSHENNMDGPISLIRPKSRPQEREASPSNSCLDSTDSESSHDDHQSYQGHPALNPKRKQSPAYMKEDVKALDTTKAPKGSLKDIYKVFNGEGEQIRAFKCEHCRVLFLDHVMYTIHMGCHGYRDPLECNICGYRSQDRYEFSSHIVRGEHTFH
T2 sequence (Q96SW2 whole entry): as the sequence (Q96SW2 whole entry) above
T2 sequence (Q16531 whole entry partner): as the sequence (Q16531 whole entry partner) above
T1 sequence (P15170 whole entry): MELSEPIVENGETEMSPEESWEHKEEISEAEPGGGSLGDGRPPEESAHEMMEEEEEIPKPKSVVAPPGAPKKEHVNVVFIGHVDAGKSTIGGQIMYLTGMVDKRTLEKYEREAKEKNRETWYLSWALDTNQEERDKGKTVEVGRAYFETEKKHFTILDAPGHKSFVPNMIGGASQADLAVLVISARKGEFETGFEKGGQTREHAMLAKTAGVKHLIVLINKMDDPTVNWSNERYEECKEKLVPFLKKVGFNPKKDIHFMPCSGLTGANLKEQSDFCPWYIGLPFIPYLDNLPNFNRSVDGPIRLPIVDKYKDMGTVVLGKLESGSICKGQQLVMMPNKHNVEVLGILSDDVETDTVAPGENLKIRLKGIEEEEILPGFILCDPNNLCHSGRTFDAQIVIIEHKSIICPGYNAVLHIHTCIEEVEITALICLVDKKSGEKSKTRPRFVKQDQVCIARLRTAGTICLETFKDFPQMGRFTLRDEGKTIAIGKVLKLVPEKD
T1 sequence (Q96SW2 whole entry): as the sequence (Q96SW2 whole entry) above
T1 sequence (Q16531 whole entry partner): as the sequence (Q16531 whole entry partner) above
T3 sequence (Q13422 whole entry): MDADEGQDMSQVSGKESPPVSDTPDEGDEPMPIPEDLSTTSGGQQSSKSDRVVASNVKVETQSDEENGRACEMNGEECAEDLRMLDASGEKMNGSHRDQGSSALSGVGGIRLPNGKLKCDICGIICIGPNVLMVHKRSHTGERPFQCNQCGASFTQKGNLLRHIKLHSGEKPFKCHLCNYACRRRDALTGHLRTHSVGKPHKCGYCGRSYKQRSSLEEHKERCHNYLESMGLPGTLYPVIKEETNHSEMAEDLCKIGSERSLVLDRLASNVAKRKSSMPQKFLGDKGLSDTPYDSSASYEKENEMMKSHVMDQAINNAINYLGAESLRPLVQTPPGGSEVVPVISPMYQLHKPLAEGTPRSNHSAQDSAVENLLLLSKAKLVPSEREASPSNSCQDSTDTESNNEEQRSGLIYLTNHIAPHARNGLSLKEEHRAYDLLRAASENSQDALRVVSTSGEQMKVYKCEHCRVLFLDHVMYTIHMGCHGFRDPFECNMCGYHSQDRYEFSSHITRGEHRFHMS
T3 sequence (Q96SW2 whole entry): as the sequence (Q96SW2 whole entry) above
T3 sequence (Q16531 whole entry partner): as the sequence (Q16531 whole entry partner) above

Row | SMILES | substrate protein remaining % GSPT1 (GSPT1) | substrate protein remaining % IKZF2 (IKZF2) | substrate protein remaining % IKZF1 (IKZF1) | substrate protein remaining % IKZF3 (IKZF3) | inhibition at 0.01 µM (H292) [%] | inhibition at 0.5 µM (H292) [%] | substrate protein remaining % CK1α (CK1α) | substrate protein remaining % WEE1 (WEE1)
1 | O=C1CCN(N2C(=O)c3ccc(CN4CC=C(c5ncnc6sc7c(c56)CCC7)CC4)cc3C2=O)C(=O)N1 [GT-08434, 5-((4-(6,7-dihydro-5H-cyclopenta[4,5]thieno[2,3-d]pyrimidin-4-yl)-3,6-dihydropyridin-1(2H)-yl)methyl)-2-(2,4-dioxotetrahydropyrimidin-1(2H)-yl)isoindoline-1,3-dione] | A (0% ≤ substrate protein remaining % ≤ 80%) | A (0% ≤ substrate protein remaining % ≤ 80%) | A (0% ≤ substrate protein remaining % ≤ 80%) | A (0% ≤ substrate protein remaining % ≤ 80%) | 20 to 40 | 15 to 20 | A (0% ≤ substrate protein remaining % ≤ 80%) | B (80%< substrate protein remaining %≤ 100%)
2 | O=C1CCN(N2C(=O)c3ccc(CN4CCN(c5nc(Cl)nc6ccsc56)CC4)cc3C2=O)C(=O)N1 [GT-08453, 5-((4-(2-chlorothieno[3,2-d]pyrimidin-4-yl)piperazin-1-yl)methyl)-2-(2,4-dioxotetrahydropyrimidin-1(2H)-yl)isoindoline-1,3-dione] | A (0% ≤ substrate protein remaining % ≤ 80%) | B (80%< substrate protein remaining %≤ 100%) | A (0% ≤ substrate protein remaining % ≤ 80%) | A (0% ≤ substrate protein remaining % ≤ 80%) | 20 to 40 | 10 to 15 | A (0% ≤ substrate protein remaining % ≤ 80%) | B (80%< substrate protein remaining %≤ 100%)
3 | O=C1CCN(N2C(=O)c3ccc(CN4CC=C(c5ncnc6sc(-c7ccccc7)cc56)CC4)cc3C2=O)C(=O)N1 [GT-08430, 2-(2,4-dioxotetrahydropyrimidin-1(2H)-yl)-5-((4-(6-phenylthieno[2,3-d]pyrimidin-4-yl)-3,6-dihydropyridin-1(2H)-yl)methyl)isoindoline-1,3-dione] | B (80%< substrate protein remaining %≤ 100%) | B (80%< substrate protein remaining %≤ 100%) | B (80%< substrate protein remaining %≤ 100%) | B (80%< substrate protein remaining %≤ 100%) | 15 to 20 | 10 to 15 | B (80%< substrate protein remaining %≤ 100%) | A (0% ≤ substrate protein remaining % ≤ 80%)
4 | O=C1CCN(N2Cc3cc(CN4CCC(c5ncc6ccsc6n5)CC4)ccc3C2=O)C(=O)N1 [GT-08115, 1-(1-oxo-5-((4-(thieno[2,3-d]pyrimidin-2-yl)piperidin-1-yl)methyl)isoindolin-2-yl)dihydropyrimidine-2,4(1H,3H)-dione] | A (0% ≤ substrate protein remaining % ≤ 80%) | B (80%< substrate protein remaining %≤ 100%) | B (80%< substrate protein remaining %≤ 100%) | B (80%< substrate protein remaining %≤ 100%) | 20 to 40 | 15 to 20 | A (0% ≤ substrate protein remaining % ≤ 80%) | B (80%< substrate protein remaining %≤ 100%)
